# According to PubChem BioAssay (NCI):
#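 At the GI50, growth is halved. TGI: total growth inhibition.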
# How the values were obtained:
# Experiment in all cases: NCI tumour cell line growth inhibition, 384-well format
# MALME-3M melanoma = system: MALME-3M melanoma
# SK-OV-3 ovarian = system: SK-OV-3 ovarian
# MOLT-4 leukemia = system: MOLT-4 leukemia
# RXF 393 renal = system: RXF 393 renal
# MDA-MB-468 breast = system: MDA-MB-468 breast
# HOP-92 NSCLC = system: HOP-92 NSCLC
# OVCAR-8 ovarian = system: OVCAR-8 ovarian
# U251 glioblastoma = system: U251 glioblastoma
# SNB-19 CNS = system: SNB-19 CNS
# KM12 colon = system: KM12 colon
# M14 melanoma = system: M14 melanoma
# SK-MEL-2 melanoma = system: SK-MEL-2 melanoma
# HS 578T breast = system: HS 578T breast
# LOX IMVI melanoma = system: LOX IMVI melanoma
# UACC-257 melanoma = system: UACC-257 melanoma
# CAKI-1 renal = system: CAKI-1 renal
# EKVX NSCLC = system: EKVX NSCLC
# 786-0 renal = system: 786-0 renal
# HCT-15 colon = system: HCT-15 colon
# BT-549 breast = system: BT-549 breast
# SF-295 CNS = system: SF-295 CNS
# NCI-H522 lung = system: NCI-H522 lung
# MDA-MB-435 melanoma = system: MDA-MB-435 melanoma
# A498 renal = system: A498 renal
# HT29 colon = system: HT29 colon
# DU-145 prostate = system: DU-145 prostate
# ACHN renal = system: ACHN renal
# NCI-H226 lung = system: NCI-H226 lung
# A549 NSCLC = system: A549 NSCLC
# OVCAR-4 ovarian = system: OVCAR-4 ovarian
# NCI-H23 lung = system: NCI-H23 lung
# HOP-62 NSCLC = system: HOP-62 NSCLC
# NCI-H460 NSCLC = system: NCI-H460 NSCLC
# CCRF-CEM leukemia = system: CCRF-CEM leukemia
# NCI-H322M lung = system: NCI-H322M lung
# NCI/ADR-RES ovarian = system: NCI/ADR-RES ovarian
# K-562 leukemia = system: K-562 leukemia
# HCC-2998 colon = system: HCC-2998 colon
# SK-MEL-28 melanoma = system: SK-MEL-28 melanoma
# HL-60(TB) leukemia = system: HL-60(TB) leukemia
# SF-268 CNS = system: SF-268 CNS
# MCF7 breast = system: MCF7 breast
# SNB-75 CNS = system: SNB-75 CNS
# COLO 205 colon = system: COLO 205 colon
# SF-539 CNS = system: SF-539 CNS
# OVCAR-3 ovarian = system: OVCAR-3 ovarian
# SW-620 colon = system: SW-620 colon
# UACC-62 melanoma = system: UACC-62 melanoma
# SK-MEL-5 melanoma = system: SK-MEL-5 melanoma
# RPMI-8226 leukemia = system: RPMI-8226 leukemia
# TK-10 renal = system: TK-10 renal
# IGROV1 ovarian = system: IGROV1 ovarian
# PC-3 prostate = system: PC-3 prostate
# HCT-116 colon = system: HCT-116 colon
# SN12C renal = system: SN12C renal
structure (smiles),measurement,setting,value
CC(C)N=C(N)/N=C(\N)Nc1ccc2ccc3ccccc3c2c1,GI50,MALME-3M melanoma,1430 nM
same,TGI,MALME-3M melanoma,2750 nM
same,GI50,SK-OV-3 ovarian,1420 nM
same,TGI,SK-OV-3 ovarian,2730 nM
same,GI50,MOLT-4 leukemia,1360 nM
same,TGI,MOLT-4 leukemia,2650 nM
same,GI50,RXF 393 renal,1580 nM
same,TGI,RXF 393 renal,2930 nM
same,GI50,MDA-MB-468 breast,242 nM
same,TGI,MDA-MB-468 breast,1470 nM
same,GI50,HOP-92 NSCLC,1560 nM
same,TGI,HOP-92 NSCLC,2900 nM
same,GI50,OVCAR-8 ovarian,1700 nM
same,TGI,OVCAR-8 ovarian,3100 nM
same,GI50,U251 glioblastoma,1790 nM
same,TGI,U251 glioblastoma,3190 nM
same,GI50,SNB-19 CNS,1760 nM
same,TGI,SNB-19 CNS,3160 nM
same,GI50,KM12 colon,1820 nM
same,TGI,KM12 colon,3250 nM
same,GI50,M14 melanoma,1890 nM
same,TGI,M14 melanoma,3300 nM
same,GI50,SK-MEL-2 melanoma,1840 nM
same,TGI,SK-MEL-2 melanoma,3240 nM
same,GI50,HS 578T breast,1720 nM
same,TGI,HS 578T breast,3100 nM
same,GI50,LOX IMVI melanoma,1560 nM
same,TGI,LOX IMVI melanoma,2920 nM
same,GI50,UACC-257 melanoma,1480 nM
same,TGI,UACC-257 melanoma,2820 nM
same,GI50,CAKI-1 renal,1480 nM
same,TGI,CAKI-1 renal,2820 nM
same,GI50,EKVX NSCLC,1660 nM
same,TGI,EKVX NSCLC,3060 nM
same,GI50,786-0 renal,1750 nM
same,TGI,786-0 renal,3140 nM
same,GI50,HCT-15 colon,1670 nM
same,TGI,HCT-15 colon,3070 nM
same,GI50,BT-549 breast,1490 nM
same,TGI,BT-549 breast,2830 nM
same,GI50,SF-295 CNS,1650 nM
same,TGI,SF-295 CNS,3020 nM
same,GI50,NCI-H522 lung,1560 nM
same,TGI,NCI-H522 lung,2910 nM
same,GI50,MDA-MB-435 melanoma,1730 nM
same,TGI,MDA-MB-435 melanoma,3120 nM
same,GI50,A498 renal,1560 nM
same,TGI,A498 renal,2910 nM
same,GI50,HT29 colon,1710 nM
same,TGI,HT29 colon,3130 nM
same,GI50,DU-145 prostate,1790 nM
same,TGI,DU-145 prostate,3230 nM
same,GI50,ACHN renal,1590 nM
same,TGI,ACHN renal,2950 nM
same,GI50,NCI-H226 lung,1640 nM
same,TGI,NCI-H226 lung,3010 nM
same,GI50,A549 NSCLC,1730 nM
same,TGI,A549 NSCLC,3140 nM
same,GI50,OVCAR-4 ovarian,1300 nM
same,TGI,OVCAR-4 ovarian,2580 nM
same,GI50,NCI-H23 lung,1530 nM
same,TGI,NCI-H23 lung,2860 nM
same,GI50,HOP-62 NSCLC,2070 nM
same,TGI,HOP-62 NSCLC,3510 nM
same,GI50,NCI-H460 NSCLC,1750 nM
same,TGI,NCI-H460 NSCLC,3170 nM
same,GI50,CCRF-CEM leukemia,1440 nM
same,TGI,CCRF-CEM leukemia,2770 nM
same,GI50,NCI-H322M lung,1840 nM
same,TGI,NCI-H322M lung,3250 nM
same,GI50,NCI/ADR-RES ovarian,10000 nM
same,TGI,NCI/ADR-RES ovarian,21800 nM
same,GI50,K-562 leukemia,1890 nM
same,TGI,K-562 leukemia,3300 nM
same,GI50,HCC-2998 colon,1400 nM
same,TGI,HCC-2998 colon,2710 nM
same,GI50,SK-MEL-28 melanoma,1850 nM
same,TGI,SK-MEL-28 melanoma,3270 nM
same,GI50,HL-60(TB) leukemia,1410 nM
same,TGI,HL-60(TB) leukemia,2720 nM
same,GI50,SF-268 CNS,1870 nM
same,TGI,SF-268 CNS,3290 nM
same,GI50,MCF7 breast,507 nM
same,TGI,MCF7 breast,1850 nM
same,GI50,SNB-75 CNS,1610 nM
same,TGI,SNB-75 CNS,2960 nM
same,GI50,COLO 205 colon,1760 nM
same,TGI,COLO 205 colon,3160 nM
same,GI50,SF-539 CNS,1740 nM
same,TGI,SF-539 CNS,3130 nM
same,GI50,OVCAR-3 ovarian,1600 nM
same,TGI,OVCAR-3 ovarian,2950 nM
same,GI50,SW-620 colon,1800 nM
same,TGI,SW-620 colon,3230 nM
same,GI50,UACC-62 melanoma,1490 nM
same,TGI,UACC-62 melanoma,2830 nM
same,GI50,SK-MEL-5 melanoma,1110 nM
same,TGI,SK-MEL-5 melanoma,2330 nM
same,GI50,RPMI-8226 leukemia,1720 nM
same,TGI,RPMI-8226 leukemia,3100 nM
same,GI50,TK-10 renal,1730 nM
same,TGI,TK-10 renal,3110 nM
same,GI50,IGROV1 ovarian,1020 nM
same,TGI,IGROV1 ovarian,2210 nM
same,GI50,PC-3 prostate,1520 nM
same,TGI,PC-3 prostate,2870 nM
same,GI50,HCT-116 colon,1710 nM
same,TGI,HCT-116 colon,3140 nM
same,GI50,SN12C renal,1650 nM
same,TGI,SN12C renal,3020 nM
